Source: paper PMC5218480 (PLoS ONE, 2017)

Tested on: MV-4-11 cells
Test: Gene expression microarray analysis (Affymetrix PrimeView) and GSEA
Type: cell-based, human
Set-up: RFU PODN (11730768_x_at) / Fold change /veh PODN (11730768_x_at) / RFU LINC00158 (11744669_a_at) / Fold change /veh LINC00158 (11744669_a_at) / RFU DUSP10 (11751237_a_at) / Fold change /veh DUSP10 (11751237_a_at) / RFU ID3 (11757404_x_at) / Fold change /veh ID3 (11757404_x_at) / RFU PLEKHG5 (11737974_s_at) / Fold change /veh PLEKHG5 (11737974_s_at) / RFU LRRC4B (11730491_at) / Fold change /veh LRRC4B (11730491_at) / RFU GIMAP4 (11747438_a_at) / Fold change /veh GIMAP4 (11747438_a_at) / RFU KRT8 (11758183_x_at) / Fold change /veh KRT8 (11758183_x_at) / RFU CNN1 (11734310_a_at) / Fold change /veh CNN1 (11734310_a_at) / RFU VPS37D (11726825_at) / Fold change /veh VPS37D (11726825_at) / RFU C10orf10 (11716522_x_at) / Fold change /veh C10orf10 (11716522_x_at) / RFU KIR2DL2 /// KIR2DL4 /// KIR2DL5A /// KIR2DL5B /// KIR2DS1 /// KIR2DS2 /// KIR2DS3 /// KIR2DS4 /// KIR3DL3 /// KIR3DL3 /// KIR3DS1 (11738374_at) / Fold change /veh KIR2DL2 /// KIR2DL4 /// KIR2DL5A /// KIR2DL5B /// KIR2DS1 /// KIR2DS2 /// KIR2DS3 /// KIR2DS4 /// KIR3DL3 /// KIR3DL3 /// KIR3DS1 (11738374_at) / RFU C1QL1 (11718748_at) / Fold change /veh C1QL1 (11718748_at) / RFU TMPRSS4 (11747572_a_at) / Fold change /veh TMPRSS4 (11747572_a_at) / RFU HAMP (11756126_x_at) / Fold change /veh HAMP (11756126_x_at) / RFU RNFT2 (11725882_a_at) / Fold change /veh RNFT2 (11725882_a_at) / RFU NR4A2 (11747474_a_at) / Fold change /veh NR4A2 (11747474_a_at) / RFU ABCC12 (11746883_a_at) / Fold change /veh ABCC12 (11746883_a_at) / RFU TMEM136 (11760407_x_at) / Fold change /veh TMEM136 (11760407_x_at) / RFU CLDN22 /// WWC2 (11732394_at) / Fold change /veh CLDN22 /// WWC2 (11732394_at) / RFU HLA-DPB1 (11760878_x_at) / Fold change /veh HLA-DPB1 (11760878_x_at) / RFU SPINT1 (11716480_a_at) / Fold change /veh SPINT1 (11716480_a_at) / RFU GAP43 (11754022_s_at) / Fold change /veh GAP43 (11754022_s_at) / RFU A4GNT (11735810_at) / Fold change /veh A4GNT (11735810_at) / RFU PRB3 (11715151_x_at) / Fold change /veh PRB3 (11715151_x_at) / RFU TUBB4B (11761932_at) / Fold change /veh TUBB4B (11761932_at) / RFU CAPN14 (11732068_a_at) / Fold change /veh CAPN14 (11732068_a_at) / RFU TMCC2 (11721928_a_at) / Fold change /veh TMCC2 (11721928_a_at) / RFU IRGQ (11745062_a_at) / Fold change /veh IRGQ (11745062_a_at) / RFU FAM174B (11720279_a_at) / Fold change /veh FAM174B (11720279_a_at) / RFU TMPRSS4 (11748680_a_at) / Fold change /veh TMPRSS4 (11748680_a_at) / RFU FAM212B (11763350_a_at) / Fold change /veh FAM212B (11763350_a_at) / RFU PLEKHG5 (11743358_a_at) / Fold change /veh PLEKHG5 (11743358_a_at) / RFU ZSCAN30 (11745921_a_at) / Fold change /veh ZSCAN30 (11745921_a_at) / RFU CMKLR1 (11741424_a_at) / Fold change /veh CMKLR1 (11741424_a_at) / RFU LOC101060620 /// MAPK8IP1 (11723275_at) / Fold change /veh LOC101060620 /// MAPK8IP1 (11723275_at) / RFU SPTSSB (11747773_x_at) / Fold change /veh SPTSSB (11747773_x_at) / RFU PRSS12 (11739890_at) / Fold change /veh PRSS12 (11739890_at) / RFU BIN1 (11741810_x_at) / Fold change /veh BIN1 (11741810_x_at) / RFU WNT11 (11732464_a_at) / Fold change /veh WNT11 (11732464_a_at) / RFU C10orf10 (11716521_a_at) / Fold change /veh C10orf10 (11716521_a_at) / RFU C5orf56 (11738089_at) / Fold change /veh C5orf56 (11738089_at) / RFU CYB561 (11721691_x_at) / Fold change /veh CYB561 (11721691_x_at) / RFU ANKRD19P (11752326_a_at) / Fold change /veh ANKRD19P (11752326_a_at) / RFU OR2T12 /// OR2T33 /// OR2T8 (11738714_s_at) / Fold change /veh OR2T12 /// OR2T33 /// OR2T8 (11738714_s_at) / RFU VCAN (11748164_a_at) / Fold change /veh VCAN (11748164_a_at) / RFU JSRP1 (11732532_at) / Fold change /veh JSRP1 (11732532_at) / RFU KRTAP10-11 (11738290_x_at) / Fold change /veh KRTAP10-11 (11738290_x_at) / RFU MYO3A (11730013_a_at) / Fold change /veh MYO3A (11730013_a_at) / RFU EBF3 (11725865_a_at) / Fold change /veh EBF3 (11725865_a_at) / RFU CAMK2N1 (11719241_x_at) / Fold change /veh CAMK2N1 (11719241_x_at) / RFU C5orf56 (11738088_a_at) / Fold change /veh C5orf56 (11738088_a_at) / RFU OLFML3 (11715873_a_at) / Fold change /veh OLFML3 (11715873_a_at) / RFU LOC100653217 /// NTM (11731650_a_at) / Fold change /veh LOC100653217 /// NTM (11731650_a_at) / RFU MAPK11 (11762145_a_at) / Fold change /veh MAPK11 (11762145_a_at) / RFU FIZ1 (11724087_x_at) / Fold change /veh FIZ1 (11724087_x_at) / RFU OASL (11726364_x_at) / Fold change /veh OASL (11726364_x_at) / RFU SOX15 (11748057_x_at) / Fold change /veh SOX15 (11748057_x_at) / RFU CD79A (11719716_a_at) / Fold change /veh CD79A (11719716_a_at) / RFU HIST1H1D (11736915_at) / Fold change /veh HIST1H1D (11736915_at) / RFU CASKIN2 (11723855_a_at) / Fold change /veh CASKIN2 (11723855_a_at) / RFU LOC730098 (11760151_x_at) / Fold change /veh LOC730098 (11760151_x_at) / RFU OR4N2 (11742367_at) / Fold change /veh OR4N2 (11742367_at) / RFU PRRT2 (11749266_a_at) / Fold change /veh PRRT2 (11749266_a_at) / RFU SNX32 (11753110_a_at) / Fold change /veh SNX32 (11753110_a_at) / RFU CDHR5 (11726645_a_at) / Fold change /veh CDHR5 (11726645_a_at) / RFU RCAN1 (11760418_a_at) / Fold change /veh RCAN1 (11760418_a_at) / RFU FAM167A (11723789_a_at) / Fold change /veh FAM167A (11723789_a_at) / RFU FAM26E (11764081_at) / Fold change /veh FAM26E (11764081_at) / RFU ISYNA1 (11749810_s_at) / Fold change /veh ISYNA1 (11749810_s_at) / RFU ACY1 (11761880_at) / Fold change /veh ACY1 (11761880_at) / RFU 11764098_at / Fold change /veh 11764098_at / RFU SAMD14 (11745864_x_at) / Fold change /veh SAMD14 (11745864_x_at) / RFU NPB (11741838_a_at) / Fold change /veh NPB (11741838_a_at) / RFU TMPRSS6 (11731388_a_at) / Fold change /veh TMPRSS6 (11731388_a_at) / RFU KRTAP10-2 (11738614_at) / Fold change /veh KRTAP10-2 (11738614_at) / RFU ARHGAP8 /// PRR5-ARHGAP8 (11727945_x_at) / Fold change /veh ARHGAP8 /// PRR5-ARHGAP8 (11727945_x_at) / RFU KRTAP5-7 /// NADSYN1 (11734609_at) / Fold change /veh KRTAP5-7 /// NADSYN1 (11734609_at) / RFU RASL12 (11751679_a_at) / Fold change /veh RASL12 (11751679_a_at) / RFU CDKN2B (11736163_a_at) / Fold change /veh CDKN2B (11736163_a_at) / RFU PRF1 (11729649_at) / Fold change /veh PRF1 (11729649_at) / RFU, ZNF638 /// ZNF638-IT1 / Fold change vs veh, ZNF638 /// ZNF638-IT1 / RFU, PANK3 / Fold change vs veh, PANK3 / RFU, SH3YL1 / Fold change vs veh, SH3YL1 / RFU, ZEB2 / Fold change vs veh, ZEB2 / RFU, NRIP1 / Fold change vs veh, NRIP1 / RFU, PTTG1IP / Fold change vs veh, PTTG1IP / RFU, CAPN2 / Fold change vs veh, CAPN2 / RFU, MED14 / Fold change vs veh, MED14 / RFU, SNORA58 / Fold change vs veh, SNORA58 / RFU, C1orf63 / Fold change vs veh, C1orf63 / RFU, LRRFIP1 / Fold change vs veh, LRRFIP1 / RFU, NDUFAF7 / Fold change vs veh, NDUFAF7 / RFU, SLC12A2 / Fold change vs veh, SLC12A2 / RFU, IBTK / Fold change vs veh, IBTK / RFU, ESF1 / Fold change vs veh, ESF1 / Fold change vs veh, TMEM50B / RFU, TAOK1 / Fold change vs veh, TAOK1 / RFU, ACBD3 / Fold change vs veh, ACBD3 / RFU, TMA16 / Fold change vs veh, TMA16 / RFU, RWDD3 / Fold change vs veh, RWDD3 / RFU, BCAT1 / Fold change vs veh, BCAT1 / RFU, EDEM3 / Fold change vs veh, EDEM3 / RFU, TMEM33 / Fold change vs veh, TMEM33 / RFU, WDR75 / Fold change vs veh, WDR75 / RFU, AHCTF1 / Fold change vs veh, AHCTF1 / RFU, TFRC / Fold change vs veh, TFRC / RFU, ZDHHC17 / Fold change vs veh, ZDHHC17 / RFU, NOM1 / Fold change vs veh, NOM1 / RFU, ARL8B / Fold change vs veh, ARL8B / RFU, ZBTB11 / Fold change vs veh, ZBTB11 / RFU, TAMM41 / Fold change vs veh, TAMM41 / RFU, KIAA1704 /// LOC100996395 / Fold change vs veh, KIAA1704 /// LOC100996395 / RFU, ING1 / Fold change vs veh, ING1 / RFU, TRMT61B / Fold change vs veh, TRMT61B / RFU, FUBP3 / Fold change vs veh, FUBP3 / RFU, TP53 / Fold change vs veh, TP53 / RFU, TNKS2 / Fold change vs veh, TNKS2 / RFU, ZFP14 / Fold change vs veh, ZFP14 / RFU, ACTR2 / Fold change vs veh, ACTR2 / RFU, PPP3R1 / Fold change vs veh, PPP3R1 / RFU, PIK3R1 / Fold change vs veh, PIK3R1 / RFU, HNRNPA1 / Fold change vs veh, HNRNPA1 / RFU, RNF170 / Fold change vs veh, RNF170 / RFU, ZNF28 / Fold change vs veh, ZNF28 / RFU, RNGTT / Fold change vs veh, RNGTT / RFU, OGT / Fold change vs veh, OGT / RFU, BRD1 / Fold change vs veh, BRD1 / RFU, MARS / Fold change vs veh, MARS / RFU, ZNF655 / Fold change vs veh, ZNF655 / RFU, FAHD1 / Fold change vs veh, FAHD1 / RFU, BDP1 / Fold change vs veh, BDP1 / RFU, LRRCC1 / Fold change vs veh, LRRCC1 / RFU, ARID1A / Fold change vs veh, ARID1A / RFU, ZNF146 / Fold change vs veh, ZNF146 / RFU, ZNF330 / Fold change vs veh, ZNF330 / RFU, GPN3 / Fold change vs veh, GPN3 / RFU, C9orf123 / Fold change vs veh, C9orf123 / RFU, N4BP2L2 / Fold change vs veh, N4BP2L2 / RFU, ARFIP1 / Fold change vs veh, ARFIP1 / RFU, FAM179B / Fold change vs veh, FAM179B / RFU, BCL10 / Fold change vs veh, BCL10 / RFU, UHRF1BP1L / Fold change vs veh, UHRF1BP1L / RFU, BET1 / Fold change vs veh, BET1 / RFU, CNOT2 / Fold change vs veh, CNOT2 / RFU, ZNF268 / Fold change vs veh, ZNF268 / Fold change vs veh, ZNF507 / RFU, DGCR2 / Fold change vs veh, DGCR2 / RFU, WDSUB1 / Fold change vs veh, WDSUB1 / Fold change vs veh, HSP90B1 /// MIR3652 / RFU, ADSS / Fold change vs veh, ADSS / RFU, GK / Fold change vs veh, GK / RFU, ZNF148 / Fold change vs veh, ZNF148 / RFU, TAF9 / Fold change vs veh, TAF9 / RFU, SLC1A5 / Fold change vs veh, SLC1A5 / RFU, SLMO2 / Fold change vs veh, SLMO2 / RFU, ABCC4 / Fold change vs veh, ABCC4 / RFU, LOC101060439 /// RAP1B / Fold change vs veh, LOC101060439 /// RAP1B / RFU, RFX7 / Fold change vs veh, RFX7 / RFU, GTPBP10 / Fold change vs veh, GTPBP10 / RFU, CNEP1R1 / Fold change vs veh, CNEP1R1 / RFU, BIVM-ERCC5 /// ERCC5 / Fold change vs veh, BIVM-ERCC5 /// ERCC5 / RFU, ILF3 / Fold change vs veh, ILF3 / RFU 11762660_at / Fold change /veh 11762660_at / RFU VCAN (11757783_s_at) / Fold change /veh VCAN (11757783_s_at) / RFU DDX43 (11728927_at) / Fold change /veh DDX43 (11728927_at) / RFU KRT8 (11758188_x_at) / Fold change /veh KRT8 (11758188_x_at) / RFU NKD1 (11759106_at) / Fold change /veh NKD1 (11759106_at) / RFU SRD5A1 (11742802_a_at) / Fold change /veh SRD5A1 (11742802_a_at) / RFU TPSAB1 /// TPSB2 (11721975_s_at) / Fold change /veh TPSAB1 /// TPSB2 (11721975_s_at) / RFU GSTM3 (11746129_a_at) / Fold change /veh GSTM3 (11746129_a_at) / RFU IL23R (11737362_x_at) / Fold change /veh IL23R (11737362_x_at) / RFU TMEM51 (11727254_a_at) / Fold change /veh TMEM51 (11727254_a_at) / RFU PIWIL2 (11732686_x_at) / Fold change /veh PIWIL2 (11732686_x_at) / RFU ORM1 (11744905_x_at) / Fold change /veh ORM1 (11744905_x_at) / RFU CCDC152 (11743942_at) / Fold change /veh CCDC152 (11743942_at) / RFU ECM1 (11717891_a_at) / Fold change /veh ECM1 (11717891_a_at) / RFU IL23R (11748794_a_at) / Fold change /veh IL23R (11748794_a_at) / RFU TNFAIP8L3 (11732012_x_at) / Fold change /veh TNFAIP8L3 (11732012_x_at) / RFU MBOAT4 (11741988_at) / Fold change /veh MBOAT4 (11741988_at) / RFU 11764193_at / Fold change /veh 11764193_at / RFU TMEM53 (11763286_at) / Fold change /veh TMEM53 (11763286_at) / RFU MAGEB2 (11727129_at) / Fold change /veh MAGEB2 (11727129_at) / RFU TMEM200A (11744735_a_at) / Fold change /veh TMEM200A (11744735_a_at) / RFU CCDC152 (11751479_a_at) / Fold change /veh CCDC152 (11751479_a_at) / RFU FAM211A (11726209_a_at) / Fold change /veh FAM211A (11726209_a_at) / RFU RGS16 (11746705_a_at) / Fold change /veh RGS16 (11746705_a_at) / RFU VCAN (11755009_s_at) / Fold change /veh VCAN (11755009_s_at) / RFU RHOB (11743442_s_at) / Fold change /veh RHOB (11743442_s_at) / RFU RGS16 (11720943_a_at) / Fold change /veh RGS16 (11720943_a_at) / RFU RGS16 (11720944_at) / Fold change /veh RGS16 (11720944_at) / RFU, VPS4B / Fold change vs veh, VPS4B / RFU, CREB1 / Fold change vs veh, CREB1 / RFU, DNAJC13 / Fold change vs veh, DNAJC13 / RFU, GNAQ / Fold change vs veh, GNAQ / RFU, CDK5R1 / Fold change vs veh, CDK5R1 / RFU, ZRANB3 / Fold change vs veh, ZRANB3 / RFU, CUL4A / Fold change vs veh, CUL4A / RFU, CCNY / Fold change vs veh, CCNY / RFU, UFL1 / Fold change vs veh, UFL1 / RFU, COG3 / Fold change vs veh, COG3 / RFU, DIAPH2 / Fold change vs veh, DIAPH2 / RFU, SKA2 / Fold change vs veh, SKA2 / RFU, AFF3 / Fold change vs veh, AFF3 / RFU, LMF1 / Fold change vs veh, LMF1 / RFU, IPO11 / Fold change vs veh, IPO11 / RFU, DFFB / Fold change vs veh, DFFB / RFU, FOXP1 / Fold change vs veh, FOXP1 / RFU, CARD8 / Fold change vs veh, CARD8 / RFU, STRN3 / Fold change vs veh, STRN3 / RFU, ADK / Fold change vs veh, ADK / RFU, RASSF2 / Fold change vs veh, RASSF2 / RFU, WIPF1 / Fold change vs veh, WIPF1 / RFU, LARP1B / Fold change vs veh, LARP1B / RFU, RASA1 / Fold change vs veh, RASA1 / RFU, RB1 / Fold change vs veh, RB1 / RFU, PPFIA1 / Fold change vs veh, PPFIA1 / RFU, MAT2A / Fold change vs veh, MAT2A / RFU, CCT5 / Fold change vs veh, CCT5 / RFU, WDR92 / Fold change vs veh, WDR92 / RFU, CUX1 / Fold change vs veh, CUX1 / RFU, TTC7A / Fold change vs veh, TTC7A / RFU, TMEM135 / Fold change vs veh, TMEM135 / RFU, DEPTOR / Fold change vs veh, DEPTOR / RFU, CPM / Fold change vs veh, CPM / RFU, DNAJB6 / Fold change vs veh, DNAJB6 / RFU, CACNA2D3 / Fold change vs veh, CACNA2D3 / RFU, DTX4 / Fold change vs veh, DTX4 / RFU, TFCP2 / Fold change vs veh, TFCP2 / RFU, GMCL1 /// GMCL1P1 / Fold change vs veh, GMCL1 /// GMCL1P1 / RFU, AEBP2 / Fold change vs veh, AEBP2 / RFU, SNHG1 /// SNORD22 /// SNORD25 /// SNORD26 /// SNORD27 /// SNORD28 /// SNORD29 /// SNORD31 / Fold change vs veh, SNHG1 /// SNORD22 /// SNORD25 /// SNORD26 /// SNORD27 /// SNORD28 /// SNORD29 /// SNORD31 / Fold change (Aza/veh), C12orf56 (ProbeSet 11735607_a_at) / Fold change (ACY-1035/veh), C12orf56 (ProbeSet 11735607_a_at) / Fold change (Aza/veh), FGFR1OP (ProbeSet 11751329_s_at) / Fold change (ACY-1035/veh), FGFR1OP (ProbeSet 11751329_s_at) / Fold change (Aza/veh), VPS36 (ProbeSet 11739960_a_at) / Fold change (ACY-1035/veh), VPS36 (ProbeSet 11739960_a_at) / RFU SYPL1 (11715823_x_at) / Fold change /veh SYPL1 (11715823_x_at) / RFU IGFBP7 (11715501_s_at) / Fold change /veh IGFBP7 (11715501_s_at) / RFU REEP3 (11722064_at) / Fold change /veh REEP3 (11722064_at) / RFU IGLL1 (11728026_x_at) / Fold change /veh IGLL1 (11728026_x_at): dose or concentration left out as unconfirmed
Settings: ProbeSet 11743580_s_at; LIST B

## Nc1ccc(-c2cccs2)cc1NC(=O)c1ccc2c(c1)cc(C1CC1)n2CCN1CCOCC1 [ACY-1035]
  Fold change vs veh, ACTR2: 0.83
